This assay relates to HUVEC/MSC spheroids viability. Description: Human HUVEC/MSC cell line growth inhibition [KRAS2].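 On viability, T/C: percent of DMSO vehicle control luminescence so 100% = untreated viability.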 Conditions: for viability, T/C: stronger effect = lower value. In short, it runs like this:
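Stroma-only multicellular spheroids, formed from HUVEC and human MSCs at passages </=5, received RAS-pathway inhibitors with or without a second targeted drug. Dosing followed half-log dilutions from clinically achievable levels.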

The structures appear in SMILES notation.

Usually IC50 stands for the concentration that gives 50% inhibition. Broadly, the viability, T/C is the ratio of treated to control. On to `CC1COCCN1c1cc(-c2ccnn2C)c2ccnc(-c3ccn[nH]3)c2n1` (stereo not drawn) + C=CC(=O)N1CCN(c2nc(=O)n(-c3c(C)ccnc3C(C)C)c3nc(-c4c(O)cccc4F)c(F)cc23)C(C)C1, for which the IC50 by setting is: (curve of first compound, second compound 0.0316 µM) 2520 nM; (curve of first compound, second compound 0.1 µM) greater than 3000 nM; (curve of first compound, second compound 0.316 µM) 2750 nM; (curve of first compound, second compound 1 µM) greater than 3000 nM; (curve of first compound, second compound 3.16 µM) greater than 3000 nM; (curve of first compound, second compound 10 µM) greater than 3000 nM. The viability, T/C is, setting by setting: (second compound 0.0316 µM, first compound 0.00949 µM) 82.3%; (second compound 0.0316 µM, first compound 0.03 µM) 97.5%; (second compound 0.0316 µM, first compound 0.0949 µM) 75%; (second compound 0.0316 µM, first compound 0.3 µM) 73.2%; (second compound 0.0316 µM, first compound 0.949 µM) 64.6%; (second compound 0.0316 µM, first compound 3 µM) 47.4%. The viability, T/C reads like this: (second compound 0.1 µM, first compound 0.00949 µM) 113%; (second compound 0.1 µM, first compound 0.03 µM) 83.7%; (second compound 0.1 µM, first compound 0.0949 µM) 96.6%; (second compound 0.1 µM, first compound 0.3 µM) 83.2%; (second compound 0.1 µM, first compound 0.949 µM) 50.7%; (second compound 0.1 µM, first compound 3 µM) 51.8%. Moreover, the viability, T/C is 114% (second compound 0.316 µM, first compound 0.00949 µM); 105% (second compound 0.316 µM, first compound 0.03 µM); 94.2% (second compound 0.316 µM, first compound 0.0949 µM); 75.5% (second compound 0.316 µM, first compound 0.3 µM); 63.3% (second compound 0.316 µM, first compound 0.949 µM); 48.6% (second compound 0.316 µM, first compound 3 µM). In addition, the viability, T/C is 108% (second compound 1 µM, first compound 0.00949 µM); 119% (second compound 1 µM, first compound 0.03 µM); 96.2% (second compound 1 µM, first compound 0.0949 µM); 76.3% (second compound 1 µM, first compound 0.3 µM); 76% (second compound 1 µM, first compound 0.949 µM); 54.6% (second compound 1 µM, first compound 3 µM). In addition, the viability, T/C runs as follows: (second compound 3.16 µM, first compound 0.00949 µM) 103%; (second compound 3.16 µM, first compound 0.03 µM) 117%; (second compound 3.16 µM, first compound 0.0949 µM) 101%; (second compound 3.16 µM, first compound 0.3 µM) 88.5%; (second compound 3.16 µM, first compound 0.949 µM) 73.2%; (second compound 3.16 µM, first compound 3 µM) 74.8%. Also, the viability, T/C runs as follows: (second compound 10 µM, first compound 0.00949 µM) 121%; (second compound 10 µM, first compound 0.03 µM) 123%; (second compound 10 µM, first compound 0.0949 µM) 115%; (second compound 10 µM, first compound 0.3 µM) 102%; (second compound 10 µM, first compound 0.949 µM) 72%; (second compound 10 µM, first compound 3 µM) 77.1%.

Take `COc1cc(Nc2ncc3c(n2)-c2ccc(Cl)cc2C(c2c(F)cccc2OC)=NC3)ccc1C(=O)O`: the viability, T/C is, setting by setting: (compound 0.1 µM) 90.3% [middle of 5 runs]; (compound 0.316 µM) 96% [middle of 5 runs]; (compound 1 µM) 94% [middle of 5 runs]; (compound 3.16 µM) 104% [middle of 5 runs]; (compound 10 µM) 61.2% [middle of 5 runs]. Also, the IC50 (curve of compound) was greater than 10000 nM.

Take `CN(C)C/C=C/C(=O)Nc1cc2c(Nc3ccc(F)c(Cl)c3)ncnc2cc1O[C@H]1CCOC1`: the viability, T/C runs as follows: (compound 0.000316 µM) 99.9% [middle of 5 runs]; (compound 0.001 µM) 91% [middle of 5 runs]; (compound 0.00316 µM) 90.5% [middle of 5 runs]; (compound 0.0316 µM) 85.3% [middle of 5 runs]. Moreover, the IC50 (curve of compound) is greater than 100 nM.
